Measurements published in PubChem BioAssay (NCI).
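1) Cells in 96-well plates. 2) Compound, 48 h, 5 concentrations. 3) Linear interpolation between surrounding doses. 4) Unreached endpoint = highest concentration. At the TGI there is no net growth.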

How the values were obtained:
Assay in all cases: NCI tumour cell line growth inhibition, 48 h
RXF-631 renal = test system: RXF-631 renal
SN12K1 renal = test system: SN12K1 renal
P388/ADR leukemia = test system: P388/ADR leukemia
P388 leukemia = test system: P388 leukemia
PC-3 prostate = test system: PC-3 prostate
MDA-N = test system: MDA-N

COc1ccc(N2C(=O)/C(=C(\C)c3cc4ccccc4oc3=O)N=C2c2cc([N+](=O)[O-])ccc2Cl)cc1
TGI (RXF-631 renal): > 100 µM

O=C(O)c1ccc(Nc2c3ccccc3nc3ccccc23)cc1
TGI (SN12K1 renal): > 100 µM | TGI (P388/ADR leukemia): 98.4 µM | TGI (P388 leukemia): > 46.6 µM

Cc1cc(C)n(C(=C(C(Cl)=C(Cl)Cl)[N+](=O)[O-])n2nc(C)cc2C)n1
TGI (PC-3 prostate): 13.6 µM | TGI (MDA-N): 13.8 µM
